Data published in PMC4774911, “Biochemical Screening of Five Protein Kinases from Plasmodium falciparum against 14,000 Cell-Active Compounds” (PLoS ONE, 2016).
Read-outs that look alike come from different tables or passages of the source.

Key:
[1] = biological target: T1, Plasmodium falciparum calcium-dependent protein kinase 4 (CDPK4) (Plasmodium falciparum, UniProt Q8IBS5); assay: CDPK4 Kinase-Glo ATP-consumption screen and dose-response; type: biochemical; conditions: hits below 1 uM
T1 construct: 6-Histidine (N); made in house
T1 sequence (Q8IBS5 1-528): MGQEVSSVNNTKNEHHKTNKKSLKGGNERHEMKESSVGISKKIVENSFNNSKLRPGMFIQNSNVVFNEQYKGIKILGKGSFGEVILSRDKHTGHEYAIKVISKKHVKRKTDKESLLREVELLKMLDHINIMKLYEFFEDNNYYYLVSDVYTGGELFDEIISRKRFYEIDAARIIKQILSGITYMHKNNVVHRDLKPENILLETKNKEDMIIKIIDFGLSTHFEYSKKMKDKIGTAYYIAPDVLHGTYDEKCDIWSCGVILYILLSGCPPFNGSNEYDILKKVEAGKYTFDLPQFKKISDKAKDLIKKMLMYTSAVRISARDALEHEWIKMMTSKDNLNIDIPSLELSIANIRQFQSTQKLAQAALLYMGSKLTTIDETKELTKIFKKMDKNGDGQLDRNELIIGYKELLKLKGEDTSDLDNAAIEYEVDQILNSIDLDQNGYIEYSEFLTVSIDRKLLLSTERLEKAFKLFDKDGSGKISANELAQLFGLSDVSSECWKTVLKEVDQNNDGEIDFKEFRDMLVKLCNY
Outline: (§1)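 ATP consumption by recombinant P. falciparum CDPK4 or CDPK1 measured as residual ATP by Kinase-Glo luminescence, with 40 μM Syntide-2 substrate and 90 min incubation stopped with 5 mM EGTA. Single-point screen at 1 μM final, followed by dose-response; no-substrate wells as negative control.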

[2] = biological target: T2, PKG (Plasmodium falciparum, UniProt Q8I719); assay: PKG IC50 (supplementary data file); type: biochemical
From the text: (§2) Supplement pone.0149996.s003.xls, sheet "combined_1_sorted"

[3] = system: HepG2 cells; conditions: HepG2 cells, cited from earlier work
[4] = system: P. falciparum 3D7 cells; conditions: P. falciparum 3D7, cited from earlier work
[5] = system: P. falciparum DD2; design: method as in ChEMBL; conditions: ref ChEMBL; cited from earlier work
[6] = system: 3D7 PFLDH; design: method as in ChEMBL; conditions: ref ChEMBL; cited from earlier work
[7] = biological target: T3, Plasmodium falciparum calcium-dependent protein kinase 1 (CDPK1) (Plasmodium falciparum, UniProt P62344); assay: CDPK1 Kinase-Glo ATP-consumption screen and dose-response; type: biochemical; conditions: hits below 1 uM; read-out: CDPK1 IC50
T3 construct: 6-Histidine (N); made in house
Outline: as §1

[8] = biological target: T2, PKG; assay: PKG IC50 (supplementary data file of hits); type: biochemical
From the text: as §2

[9] = system: DD2; design: method as in F.J. Gamo et al., Nature 2010; conditions: P. falciparum Dd2; downloaded from ChEMBL ref F.J. Gamo et al., Nature 2010; cited from earlier work
[10] = system: 3D7 PFLDH; design: method as in F.J. Gamo et al., Nature 2010; conditions: downloaded from ChEMBL ref F.J. Gamo et al., Nature 2010; cited from earlier work
[11] = downloaded from ChEMBL ref F.J. Gamo et al., Nature 2010

T3 sequence (P62344 whole entry): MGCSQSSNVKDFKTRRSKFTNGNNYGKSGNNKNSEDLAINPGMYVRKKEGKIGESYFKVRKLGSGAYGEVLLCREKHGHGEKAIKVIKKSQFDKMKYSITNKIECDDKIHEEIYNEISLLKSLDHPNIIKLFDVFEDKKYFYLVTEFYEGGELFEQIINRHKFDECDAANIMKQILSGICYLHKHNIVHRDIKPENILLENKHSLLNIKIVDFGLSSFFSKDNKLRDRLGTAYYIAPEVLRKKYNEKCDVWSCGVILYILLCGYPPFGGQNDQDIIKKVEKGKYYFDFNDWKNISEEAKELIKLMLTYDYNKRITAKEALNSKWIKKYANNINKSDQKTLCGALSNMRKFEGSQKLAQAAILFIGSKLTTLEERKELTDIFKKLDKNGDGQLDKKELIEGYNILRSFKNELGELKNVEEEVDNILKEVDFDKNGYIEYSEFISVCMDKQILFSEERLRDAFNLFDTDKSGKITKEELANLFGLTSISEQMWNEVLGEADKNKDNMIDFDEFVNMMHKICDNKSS
T2 sequence (Q8I719 whole entry): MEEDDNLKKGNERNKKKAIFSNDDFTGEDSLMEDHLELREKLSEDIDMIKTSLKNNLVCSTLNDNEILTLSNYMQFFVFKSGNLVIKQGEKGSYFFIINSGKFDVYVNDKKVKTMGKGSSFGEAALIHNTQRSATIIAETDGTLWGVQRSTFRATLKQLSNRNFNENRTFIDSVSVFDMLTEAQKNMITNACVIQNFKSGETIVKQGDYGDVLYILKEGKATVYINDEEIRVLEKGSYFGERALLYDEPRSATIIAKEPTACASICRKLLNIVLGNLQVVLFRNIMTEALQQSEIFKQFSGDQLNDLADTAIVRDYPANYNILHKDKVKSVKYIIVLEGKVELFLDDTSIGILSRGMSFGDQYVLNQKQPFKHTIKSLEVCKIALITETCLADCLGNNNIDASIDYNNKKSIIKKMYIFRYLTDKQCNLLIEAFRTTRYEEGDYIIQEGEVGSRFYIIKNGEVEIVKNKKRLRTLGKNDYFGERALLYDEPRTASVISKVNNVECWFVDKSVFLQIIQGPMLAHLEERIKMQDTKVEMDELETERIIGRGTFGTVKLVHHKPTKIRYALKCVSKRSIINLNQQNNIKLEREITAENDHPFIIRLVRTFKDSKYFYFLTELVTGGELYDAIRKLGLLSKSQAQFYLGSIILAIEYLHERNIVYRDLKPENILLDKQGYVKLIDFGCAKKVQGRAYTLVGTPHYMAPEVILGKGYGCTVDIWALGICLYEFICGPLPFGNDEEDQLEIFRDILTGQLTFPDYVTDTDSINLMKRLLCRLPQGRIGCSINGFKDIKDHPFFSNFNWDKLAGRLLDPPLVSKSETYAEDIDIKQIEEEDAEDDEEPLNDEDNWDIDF

| SMILES | IC50 [1] | IC50 [2] | PCT_INHIB_HEPG2 ([3]; ref ChEMBL) | PCT_IHB_3D7 ([4]; ref ChEMBL) | pXC50_3D7 ([4]; ref ChEMBL) | PCT_INHB_DD2 [5] | PCT_INHIB_3D7_PFLDH [6] | IC50 [7] | IC50 [8] | PCT_INHIB_HEPG2 [3, 11] | PCT_IHB_3D7 [4, 11] | pXC50_3D7 [4, 11] | PCT_INHB_DD2 [9] | PCT_INHIB_3D7_PFLDH [10] |
| --- | --- | --- | --- | --- | --- | --- | --- | --- | --- | --- | --- | --- | --- | --- |
| N#Cc1ccc(C(=O)Nc2cc(-c3cccc(O)c3)cc3[nH]ncc23)cc1 [TCMDC-134118] | 0.478 µM | > 10 µM | 15 | 90 | 5.863 | 79 | 0 |  |  |  |  |  |  |  |
| O=C(Nc1cccc(-c2nn3ncccc3c2-c2ccnc(Nc3ccccc3)n2)c1)c1c(F)cccc1F [TCMDC-134631] | 0.352 µM |  |  |  |  |  |  | 0.039 µM | > 10 µM | 51 | 98 | 6.139 | 96 | 0 |
| O=C(Nc1ccccc1)Nc1cccc(-c2nn3c(OCCN4CCCC4)cccc3c2-c2ccncc2)c1 [TCMDC-135539] | 0.775 µM |  |  |  |  |  |  |  | > 10 µM | 30 | 100 | 6.394 | 98 | 4 |
| O=C(Nc1cccc(-c2nn3ncccc3c2-c2ccnc(Nc3cccc(-c4cnco4)c3)n2)c1)c1c(F)cccc1F [TCMDC-135550] | 0.145 µM |  |  |  |  |  |  | 0.023 µM | > 10 µM | 96 | 97 | 6.779 | 98 | 2 |
| Cn1cccc1C(=O)Nc1cccc(-c2nn3ccccc3c2-c2ccnc(Nc3ccc4c(c3)OCCO4)n2)c1 [TCMDC-135663] | 0.191 µM |  |  |  |  |  |  |  | > 10 µM | 12 | 95 | 5.869 | 27 | 4 |
| O=C(NCC(c1ccc(C(F)(F)F)cc1)N1CCCC1)c1cc(-c2ccncc2)c(-c2cccc(O)c2)o1.O=C(O)C(F)(F)F (centres unmarked) [TCMDC-135665] | 0.178 µM |  |  |  |  |  |  | 0.283 µM | 7.64 µM | 9 | 95 | 5.973 | 53 | 0 |
| COc1cc(Nc2nccc(-c3c(-c4cccc(NC(=O)c5c(F)cccc5F)c4)nn4ccccc34)n2)cc(OC)c1OC [TCMDC-135668] | 0.077 µM |  |  |  |  |  |  | 0.06 µM | > 10 µM | 74 | 98 | 7.112 | 98 | 4 |
| CCS(=O)(=O)c1ccc(OC)c(Nc2nccc(-c3c(-c4cccc(NC(=O)c5c(F)cccc5F)c4)nn4ncccc34)n2)c1 [TCMDC-135682] | 0.201 µM |  |  |  |  |  |  |  | > 10 µM | 27 | 87 | 5.986 | 88 | 0 |
| COc1cc(Nc2nccc(-c3c(-c4cccc(NC(=O)c5c(F)cccc5F)c4)nn4ncccc34)n2)cc(OC)c1OC [TCMDC-135684] | 0.045 µM |  |  |  |  |  |  |  | > 10 µM | 96 | 98 | 7.4867 | 97 | 1 |
| O=C(Nc1cccc(-c2nn3ccccc3c2-c2ccnc(Nc3cccc(-c4cnco4)c3)n2)c1)C1CCCCC1 [TCMDC-135769] | 0.612 µM |  |  |  |  |  |  | 0.164 µM | > 10 µM | 71 | 95 | 6.584 | 99 | 0 |
| O=C(Nc1cccc(-c2nn3ccccc3c2-c2ccnc(Nc3ccc(C(=O)N4CCOCC4)cc3)n2)c1)c1c(F)cccc1F [TCMDC-135910] | 0.311 µM |  |  |  |  |  |  | 0.092 µM | > 10 µM | 72 | 99 | 6.417 | 97 | 4 |
| CCN(CC)CCNC(=O)c1ccc(N/C=C2\C(=O)Nc3ccc(S(=O)(=O)Cc4c(Cl)cccc4Cl)cc32)cc1 [TCMDC-135945] | 0.073 µM | > 10 µM | 25 | 100 | 6.0758 | 56 | 3 |  |  |  |  |  |  |  |
| NS(=O)(=O)c1cccc(N/C=C2\C(=O)Nc3ccc(S(=O)(=O)Cc4c(Cl)cccc4Cl)cc32)c1 [TCMDC-135947] | 0.116 µM | > 10 µM | 1 | 92 | 6.143 | 99 | 4 |  |  |  |  |  |  |  |
| Cc1csc(-c2ncc(OC[C@@H](N)Cc3ccccc3)cc2-c2ccc3[nH]nc(C)c3c2)c1.O=C(O)C(F)(F)F [TCMDC-136087] | 0.42 µM | > 10 µM | 48 | 98 | 6.078 | 35 | 4 | 0.044 µM |  |  |  |  |  |  |
| Cc1n[nH]c2ccc(-c3cc(OC[C@@H](N)Cc4ccccc4)cnc3-c3cc4ccccc4s3)cc12.O=C(O)C(F)(F)F [TCMDC-136352] | 0.563 µM | > 10 µM | 41 | 99 | 6.092 | 68 | 0 |  |  |  |  |  |  |  |
| CC(C)(CN)c1nc(-c2ccc(Br)c(O)c2)c(-c2ccncc2)[nH]1.Cl [TCMDC-140680] |  |  |  |  |  |  |  | 0.019 µM | 0.242 µM | 31 | 96 | 6.015 | 97 | 0 |
